Entries after “also recorded” stand apart in the source; their conditions may differ.
Columns and labels:
[1] = biological target: SIK3 (Homo sapiens, UniProt Q9Y2K2); assay: CRTC2 activity as a measure of SIK3 inhibitory activity; format: cell-based; conditions: 150 μM
Experimental: Comparative evaluation of pterosin derivatives was performed in terms of the inhibitory effect on SIK3 signaling. As a measure of the SIK3 inhibitory activity, the induced activity of the transcription coupling factor CRTC2 (which is also referred to as TORC2, serves as a coupling factor of the transcription factor CREB, and is an inhibition target of SIK3) was measured according to the method described in PCT/JP2012/063709.

[2] = test system: articular cartilage on the medial femoral epicondyle; assay: intra-articular administration into the knee of C57BL/6 mice, articular cartilage histology; format: in vivo, mouse; conditions: 3 times a week, 4 weeks
Excerpt: After the administration was continued for 4 weeks, the knee joint was dissected and then stained with safranin O/fast green/iron hematoxylin.

[3] = test system: mouse primary chondrocytes; assay: quantitative RT-PCR in pellet-cultured mouse primary chondrocytes; format: cell-based; conditions: for mRNA amount of Col10a1 relative to Gapdh: cell pellet, 300 μM, 2 or 4 weeks after addition
Experimental: (§1) Primary chondrocytes obtained from the distal femoral epiphyseal cartilage and the proximal tibial epiphyseal cartilage of 1- to 5-day-old mice were pelletized by centrifugation, and to the cell pellet, the extracted pterosin B at a given concentration (0 μM (only DMSO as a vehicle), 100 μM, 200 μM or 300 μM) was added in DMEM supplemented with 10% fetal calf serum. […] In addition, the mRNA amounts of Col2a1, Col10a1 and Sik3 relative to Gapdh in the cell pellet were measured by quantitative RT-PCR. […] Col2a1 is a gene relevant to […], and Col10a1 is a gene indicative of hypertrophic differentiation of chondrocytes.
In the same manner as in Example 1, primary chondrocytes obtained from 1- to 5-day-old mice were pelletized, and to the cell pellet, a pterosin derivative (synthesized pterosin B or pterosin Z) at 300 μM was added in DMEM supplemented with 10% fetal calf serum. At 2 or 4 weeks after the addition, the cell pellet was collected and the mRNA amount of Col10a1 relative to Gapdh was measured by quantitative RT-PCR. As a result, it was shown that Col10a1 was decreased by the addition of pterosin Z as well as the addition of the synthesized pterosin B (FIG. 9).

[4] = test system: mouse primary chondrocytes; assay: safranin O staining of pellet-cultured mouse primary chondrocytes; format: cell-based; conditions: cell pellet, 100, 200 or 300 μM, 28 days after addition
Experimental: as §1

[5] = test system: embryonic mouse metatarsal bone; assay: tissue culture of embryonic mouse metatarsal bone, safranin O, BrdU and Col10a1 staining; format: cell-based; conditions: 300 μM, 7 days
Experimental: The metatarsal bone was isolated from a mouse embryo of E15.5, and tissue culture of the bone was performed in DMEM supplemented with 10% fetal calf serum. To the culture medium, 300 μM of the extracted pterosin B or the synthesized pterosin B was added, and the culture was further continued. Seven days later, the metatarsal bone was collected and its histological sections were prepared. At 8 hours before the collection of the metatarsal bone, BrdU was added to the culture medium. The histological sections of the metatarsal bone were stained with safranin O and immunostained with an anti-BrdU antibody. As a result, it was shown that, in the presence of the extracted pterosin B or the synthesized pterosin B, the safranin O-stained area and the BrdU-positive cell number were increased (FIGS. 2 and 3). Meanwhile, the number of hypertrophic chondrocytes was decreased in the presence of the extracted pterosin B or the synthesized pterosin B (FIG. 4).

[6] = test system: human chondrocytes; assay: safranin O staining of pellet-cultured human primary chondrocytes; format: cell-based; conditions: 300 μM, on and after 14 days (14 or 28 days)
Experimental: (§2) Chondrocytes collected from a person with medial compartmental idiopathic osteonecrosis under informed consent were cultured in DMEM (Dulbecco's Modified Eagle's Medium) supplemented with 10% fetal calf serum for 7 days (an image of a 3-day culture is shown in FIG. 5A), and then pelletized by centrifugation (FIG. 5A). The human chondrocyte pellet was cultured in DMEM supplemented with 10% fetal calf serum and 300 μM of the extracted pterosin B for 14 or 28 days. The cell pellet was collected and then stained with safranin O. As a result, it was shown that the staining intensity in the presence of the extracted pterosin B was increased on and after 14 days from the addition of the extracted pterosin B (FIG. 5B). In addition, the mRNA amounts of COL2A1, COL11A2, ACAN, SOX9, COL10A1 and COL1A1 relative to GAPDH in the cell pellet were measured by quantitative RT-PCR. As a result, the mRNA amounts of COL2A1, COL11A2, ACAN and SOX9 were increased by the addition of the […] pterosin B, while the mRNA amounts of COL10A1 and COL1A1 were decreased by the addition of the extracted pterosin B (FIG. 6). […] Therefore, pterosin B is considered to have the effect of promoting hyaline cartilage growth in humans as well.

[7] = test system: human chondrocytes; assay: quantitative RT-PCR in pellet-cultured human primary chondrocytes; format: cell-based; conditions: 300 μM, pellet culture 2 weeks
Experimental: as §2

[8] = cell pellet, 100, 200 or 300 μM, 28 days

Sequence of SIK3 (Q9Y2K2 whole entry, species assumed): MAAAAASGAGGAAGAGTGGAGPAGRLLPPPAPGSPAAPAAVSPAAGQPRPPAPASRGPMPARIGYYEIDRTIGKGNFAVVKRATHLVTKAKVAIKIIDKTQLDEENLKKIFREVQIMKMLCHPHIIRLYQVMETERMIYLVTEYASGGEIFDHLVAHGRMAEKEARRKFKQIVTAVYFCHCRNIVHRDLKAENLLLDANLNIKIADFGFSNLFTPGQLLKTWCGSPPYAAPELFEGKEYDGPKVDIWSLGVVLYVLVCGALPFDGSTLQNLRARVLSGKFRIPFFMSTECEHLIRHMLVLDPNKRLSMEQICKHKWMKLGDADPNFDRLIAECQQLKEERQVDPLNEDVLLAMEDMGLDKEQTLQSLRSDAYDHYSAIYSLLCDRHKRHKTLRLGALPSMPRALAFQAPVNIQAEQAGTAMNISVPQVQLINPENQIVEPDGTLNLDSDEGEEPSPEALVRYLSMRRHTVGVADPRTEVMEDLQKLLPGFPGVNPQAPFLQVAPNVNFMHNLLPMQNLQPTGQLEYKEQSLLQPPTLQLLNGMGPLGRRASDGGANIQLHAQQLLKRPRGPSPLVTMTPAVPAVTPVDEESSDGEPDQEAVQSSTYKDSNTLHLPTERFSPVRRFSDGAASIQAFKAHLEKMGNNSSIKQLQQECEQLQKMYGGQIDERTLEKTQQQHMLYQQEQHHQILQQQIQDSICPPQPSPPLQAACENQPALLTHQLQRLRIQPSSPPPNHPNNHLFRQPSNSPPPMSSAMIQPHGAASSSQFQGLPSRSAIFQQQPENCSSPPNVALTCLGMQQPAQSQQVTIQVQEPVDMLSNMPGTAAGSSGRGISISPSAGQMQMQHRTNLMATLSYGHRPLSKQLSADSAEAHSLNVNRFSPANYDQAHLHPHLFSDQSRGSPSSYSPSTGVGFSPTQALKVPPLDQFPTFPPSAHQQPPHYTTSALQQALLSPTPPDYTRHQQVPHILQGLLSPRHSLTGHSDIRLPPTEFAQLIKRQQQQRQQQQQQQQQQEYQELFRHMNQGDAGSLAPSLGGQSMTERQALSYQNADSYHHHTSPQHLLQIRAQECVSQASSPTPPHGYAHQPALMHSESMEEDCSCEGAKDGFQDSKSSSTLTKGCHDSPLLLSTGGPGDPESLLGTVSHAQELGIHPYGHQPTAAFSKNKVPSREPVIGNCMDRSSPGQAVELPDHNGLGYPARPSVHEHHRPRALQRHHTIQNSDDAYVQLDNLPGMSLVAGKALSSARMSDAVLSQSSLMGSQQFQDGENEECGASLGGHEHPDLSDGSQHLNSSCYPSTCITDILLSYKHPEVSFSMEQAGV

## COCCc1c(C)c(O)c2c(c1C)C(=O)C(C)(C)C2 [14-O-methyl-onitin, 14-O-methylonitin]
[1]
  SIK3 inhibitory activity (induced activity of CRTC2): highly active than pterosin B

## Cc1c(O)c2c(c(C)c1CCCl)C(=O)C(C)(C)C2 [14-chloro-onitin, 14-deoxy-14-chloroonitin]
[1]
  SIK3 inhibitory activity (induced activity of CRTC2): highly active than pterosin B

## COCCc1c(C)cc2c(c1C)C(=O)C(OC)C2 (stereo not shown) [14-O-methyl-pterosin G, 14-O-methylpterosin G]
[1]
  SIK3 inhibitory activity (induced activity of CRTC2): highly active than pterosin B

## Cc1c(O)c2c(c(C)c1CCO)C(=O)C(C)(C)C2 [onitin]
[1]
  SIK3 inhibitory activity (induced activity of CRTC2): highly active than pterosin B

## Cc1cc2c(c(C)c1CCO)C(=O)C(C)C2 (stereo not shown) [pterosin B]
[2]; 300 μM or 900 μM intra-articular
  area of the articular cartilage on the medial femoral epicondyle: increased with increasing concentration
[1]
  SIK3 inhibitory activity (induced activity of CRTC2): slightly inhibit

## Cc1cc2c(c(C)c1CCO)C(=O)C(C)(C)C2 [pterosin Z]
[3]
  mRNA amount of Col10a1 relative to Gapdh: decreased
[1]
  SIK3 inhibitory activity (induced activity of CRTC2): highly active than pterosin B

## Cc1cc2c(c(C)c1CCO)C(=O)C(C)C2 (stereo not shown) [extracted pterosin B, pterosin B]
[4]
  safranin O staining intensity: increased with increasing concentration
[3]; [8]
  amount of Col2a1 mRNA relative to Gapdh: increased with increasing concentration
  amount of Col10a1 mRNA relative to Gapdh: decreased with increasing concentration
[5]
  number of hypertrophic chondrocytes: decreased
  safranin O-stained area: increased
[5]; BrdU 8 hours before collection
  BrdU-positive cell number: increased
[6]
  safranin O staining intensity: increased
[7]
  mRNA amount of COL1A1 relative to GAPDH: decreased
  mRNA amount of COL10A1 relative to GAPDH: decreased
[2]; 300 μM into left knee articular cavity, one line per mouse (No. 4-7)
  Findings of medial femoral epicondyle: No apparent abnormalities; also recorded: Moderate osteoarthritis
[2]; 900 μM into left knee articular cavity, one line per mouse (No. 8-11)
  Findings of medial femoral epicondyle: No apparent abnormalities; also recorded: Moderate osteoarthritis

## COCCc1c(C)cc2c(c1C)C(=O)C(C)(C)C2 [pterosin I]
[1]
  SIK3 inhibitory activity (induced activity of CRTC2): highly active than pterosin B

## Cc1cc2c(c(C)c1CCO)C(=O)C(C)C2 (stereo not shown) [synthesized pterosin B, pterosin B]
[3]
  mRNA amount of Col10a1 relative to Gapdh: decreased
[7]
  mRNA amount of ACAN relative to GAPDH: increased
  mRNA amount of COL2A1 relative to GAPDH: increased
  mRNA amount of COL11A2 relative to GAPDH: increased
  mRNA amount of SOX9 relative to GAPDH: increased

— patent US9668985B2, “Pterosin derivative-containing therapeutic preparation for disease associated with cartilage loss, cartilage degeneration and/or cartilage thinning” (KYOTO UNIVERSITY, priority 2013, dated 2017)
